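Protocol summary: plate cells (96-well), add compound at 5 concentrations, incubate 48 h, interpolate endpoints linearly. Here, GI50 denotes the concentration required for 50% inhibition of growth.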 The source made the active and inactive calls. No stated cut-off is given here; in the data, active = GI50 up to about 1.1 µM and inactive = higher.
Key:
Assay in all cases: NCI anticancer screen, dose series, 48 h
[1] = system: CAKI-1
[2] = system: DU-145
[3] = system: EKVX
[4] = system: HL-60
[5] = system: Hs-578T
[6] = system: KM12
[7] = system: LOX IMVI
[8] = system: MDA-MB-231
[9] = system: MDA-MB-435
[10] = system: MOLT-4
[11] = system: NCI-H460
[12] = system: OVCAR-4
[13] = system: SF-295
[14] = system: SK-MEL-2
[15] = system: SK-OV-3
[16] = system: SW-620
[17] = system: UACC-62
[18] = system: A498
[19] = system: Malme-3M
[20] = system: RPMI-8226

| Structure (SMILES) | GI50 [1] | GI50 [2] | GI50 [3] | GI50 [4] | GI50 [5] | GI50 [6] | GI50 [7] | GI50 [8] | GI50 [9] | GI50 [10] | GI50 [11] | GI50 [12] | GI50 [13] | GI50 [14] | GI50 [15] | GI50 [16] | GI50 [17] | GI50 [18] | GI50 [19] | GI50 [20] |
| --- | --- | --- | --- | --- | --- | --- | --- | --- | --- | --- | --- | --- | --- | --- | --- | --- | --- | --- | --- | --- |
| Cc1nc(C(N)=S)sc1C(/C=C/c1ccc(Cl)c(Cl)c1)=N/NC(C)(C)C | > 100 µM (inactive) | > 100 µM (inactive) | > 100 µM (inactive) | 61.8 µM (inactive) | > 100 µM (inactive) | > 100 µM (inactive) | > 100 µM (inactive) | > 100 µM (inactive) | > 100 µM (inactive) | 22.3 µM (inactive) | > 100 µM (inactive) | 88.5 µM (inactive) | > 100 µM (inactive) | > 100 µM (inactive) | > 100 µM (inactive) | > 100 µM (inactive) | > 100 µM (inactive) |  |  |  |
| CC1OC(NCCNCCNC2OC(C)C(O)C(O)C2O)C(O)C(O)C1O (centres undefined) |  | > 100 µM (inactive) | > 100 µM (inactive) | > 100 µM (inactive) | > 100 µM (inactive) | > 100 µM (inactive) | > 100 µM (inactive) | > 100 µM (inactive) |  | > 100 µM (inactive) | > 100 µM (inactive) | > 100 µM (inactive) | > 100 µM (inactive) | > 100 µM (inactive) |  | > 100 µM (inactive) | > 100 µM (inactive) | > 100 µM (inactive) | > 100 µM (inactive) | > 100 µM (inactive) |
| Cc1ccc2ccccc2c1NC1=NCCO1 |  | > 100 µM (inactive) | > 100 µM (inactive) | 58.5 µM (inactive) | 24.9 µM (inactive) | 75.3 µM (inactive) |  | > 100 µM (inactive) | > 100 µM (inactive) | 34 µM (inactive) | 33.7 µM (inactive) | 94.6 µM (inactive) | > 100 µM (inactive) |  | > 100 µM (inactive) | > 100 µM (inactive) | > 100 µM (inactive) |  | > 100 µM (inactive) | 36.2 µM (inactive) |
| OCC1OC(OCC(O)C(O)C(O)C(/C=N/Nc2ccccc2)=N/Nc2ccccc2)C(O)C(O)C1O (centres undefined) | 34.4 µM (inactive) | > 100 µM (inactive) | > 100 µM (inactive) | > 100 µM (inactive) | > 100 µM (inactive) | > 100 µM (inactive) | 13.2 µM (inactive) | > 100 µM (inactive) | > 100 µM (inactive) | > 100 µM (inactive) | 30.9 µM (inactive) |  | 78.9 µM (inactive) |  | > 100 µM (inactive) | > 100 µM (inactive) |  |  | 85.5 µM (inactive) | > 100 µM (inactive) |
| COC(=O)C1SC(SC)=NC12c1ccccc1Nc1ccccc12 (centres undefined) | 37.3 µM (inactive) | 36.4 µM (inactive) | 30.1 µM (inactive) | 29.5 µM (inactive) | 31.7 µM (inactive) | 41.7 µM (inactive) | 18 µM (inactive) |  | 27 µM (inactive) | 22.1 µM (inactive) | 22.1 µM (inactive) | 32.7 µM (inactive) | 32.7 µM (inactive) | 21.5 µM (inactive) | 45.8 µM (inactive) | 36.6 µM (inactive) | 16.6 µM (inactive) | 41.8 µM (inactive) | 22 µM (inactive) | 21.2 µM (inactive) |
| O=[N+]([O-])c1ccc2c(c1)C(N1CCN(CCO)CC1)Cc1ccc(F)cc1S2 (centres undefined) | 13.1 µM (inactive) | 14.8 µM (inactive) | 11.2 µM (inactive) | 5.02 µM (inactive) | 6.75 µM (inactive) | 6.64 µM (inactive) |  | 12.9 µM (inactive) |  | 1.04 µM (active) | 8.61 µM (inactive) | 12.4 µM (inactive) | 4.14 µM (inactive) |  | 17.3 µM (inactive) | 4.95 µM (inactive) | 2.49 µM (inactive) | 11.6 µM (inactive) |  |  |
| CCOc1cc(C2CC(c3ccc(NS(=O)(=O)c4cc([N+](=O)[O-])ccc4C)cc3)=NN2c2ccc([N+](=O)[O-])cc2[N+](=O)[O-])ccc1O (centres undefined) | 16.9 µM (inactive) | 12.8 µM (inactive) | 4.71 µM (inactive) | 40.9 µM (inactive) | 12.9 µM (inactive) | 11 µM (inactive) | 16.6 µM (inactive) | 6.3 µM (inactive) | 11.6 µM (inactive) | 23.3 µM (inactive) |  | 3.3 µM (inactive) | 12.1 µM (inactive) | 19.5 µM (inactive) | 3.43 µM (inactive) | 21.8 µM (inactive) |  |  | 8.57 µM (inactive) | 11.3 µM (inactive) |
| COC1=CC2C(c3cc4ccccc4n3S(=O)(=O)c3ccccc3)CC1CN2C(=O)OCc1ccccc1 (centres undefined) | 35.2 µM (inactive) | 29.2 µM (inactive) | 18.9 µM (inactive) | 16.4 µM (inactive) | 23.8 µM (inactive) | 26.9 µM (inactive) | 24.8 µM (inactive) | 20 µM (inactive) | 24.2 µM (inactive) |  | 29.5 µM (inactive) | 26.1 µM (inactive) | 25 µM (inactive) | 23.6 µM (inactive) | 28.8 µM (inactive) | 37.6 µM (inactive) | 29.8 µM (inactive) |  | 19.8 µM (inactive) | 17.2 µM (inactive) |
| Cc1ccc(C2SC(=N)Nc3c2c(C)nn3C(=O)c2ccncc2)cc1 (centres undefined) | > 10 µM (inactive) | > 10 µM (inactive) |  | > 10 µM (inactive) | > 10 µM (inactive) | > 10 µM (inactive) | > 10 µM (inactive) | > 10 µM (inactive) | > 10 µM (inactive) | > 10 µM (inactive) | > 10 µM (inactive) | > 10 µM (inactive) | > 10 µM (inactive) | > 10 µM (inactive) | > 10 µM (inactive) | > 10 µM (inactive) | > 10 µM (inactive) |  | > 10 µM (inactive) | > 10 µM (inactive) |
| O=C1CCN(CCC(F)(F)C(F)(F)C(F)(F)C(F)(F)C(F)(F)C(F)(F)F)C(=S)N1CCC(F)(F)C(F)(F)C(F)(F)C(F)(F)C(F)(F)C(F)(F)F | > 100 µM (inactive) | > 100 µM (inactive) | > 100 µM (inactive) | > 100 µM (inactive) | > 100 µM (inactive) | > 100 µM (inactive) |  | > 100 µM (inactive) | > 100 µM (inactive) | > 100 µM (inactive) | > 100 µM (inactive) | > 100 µM (inactive) | > 100 µM (inactive) |  | > 100 µM (inactive) | > 100 µM (inactive) | > 100 µM (inactive) | > 100 µM (inactive) | > 100 µM (inactive) |  |
| COC(=O)/C=C/N1CC1 | > 10 µM (inactive) | > 10 µM (inactive) | > 10 µM (inactive) | 8.63 µM (inactive) | > 10 µM (inactive) | > 10 µM (inactive) |  | > 10 µM (inactive) | > 10 µM (inactive) | > 10 µM (inactive) | > 10 µM (inactive) | 4.82 µM (inactive) | > 10 µM (inactive) | > 10 µM (inactive) | > 10 µM (inactive) |  | > 10 µM (inactive) |  | > 10 µM (inactive) | > 10 µM (inactive) |
| CCOC(=O)CCC(NC(=O)c1ccc(Nc2nc3ccc(C(F)(F)F)cc3nc2-c2ccccc2)cc1)C(=O)OCC (centres undefined) | > 100 µM (inactive) | > 100 µM (inactive) | > 100 µM (inactive) | > 63.4 µM (inactive) | 24.4 µM (inactive) | > 94 µM (inactive) | > 42 µM (inactive) | 21.6 µM (inactive) | 83 µM (inactive) | 22.1 µM (inactive) | 56.6 µM (inactive) | 34.2 µM (inactive) | > 100 µM (inactive) | 19.1 µM (inactive) |  | > 100 µM (inactive) | 17.3 µM (inactive) |  | 23.1 µM (inactive) | > 84.1 µM (inactive) |
| c1ccc(CC2COC(c3cccs3)=N2)cc1 (centres undefined) | > 100 µM (inactive) | 42.1 µM (inactive) | 66.2 µM (inactive) | 37.3 µM (inactive) | 49.5 µM (inactive) | > 89.3 µM (inactive) | > 74.1 µM (inactive) | > 72.6 µM (inactive) | > 100 µM (inactive) | 47.8 µM (inactive) | > 86.5 µM (inactive) | > 100 µM (inactive) | > 86.3 µM (inactive) | 43.8 µM (inactive) | > 68.9 µM (inactive) | > 100 µM (inactive) | > 100 µM (inactive) |  | > 100 µM (inactive) | > 70.3 µM (inactive) |
| Cc1ccc(O)c(/N=N\c2c(O)cc(S(=O)(=O)O)c3ccccc23)c1 | 63.4 µM (inactive) |  | 96.4 µM (inactive) | 16.4 µM (inactive) | > 100 µM (inactive) | 21.8 µM (inactive) |  | 25.4 µM (inactive) | 56.9 µM (inactive) | 26.5 µM (inactive) | 35.6 µM (inactive) | 66.1 µM (inactive) | 34.6 µM (inactive) | 29.7 µM (inactive) | 51.4 µM (inactive) | 45.2 µM (inactive) | 25.7 µM (inactive) |  | 25.2 µM (inactive) | 37.9 µM (inactive) |
| CCN(CC)S(=O)(=O)c1ccc2[nH]c(NC(=O)OC)nc2c1 | > 100 µM (inactive) | > 100 µM (inactive) | > 100 µM (inactive) | 12.9 µM (inactive) | > 100 µM (inactive) | 36.9 µM (inactive) | 42.6 µM (inactive) | > 100 µM (inactive) | 15.3 µM (inactive) | 20.4 µM (inactive) | 49.2 µM (inactive) | 35.6 µM (inactive) | 85.7 µM (inactive) | > 100 µM (inactive) | > 100 µM (inactive) | 33.7 µM (inactive) |  |  | > 100 µM (inactive) | 14 µM (inactive) |
| COc1nc(N)c(C#N)c(C#N)c1C#N | > 10 µM (inactive) | > 10 µM (inactive) |  | > 10 µM (inactive) | > 10 µM (inactive) | > 10 µM (inactive) | > 10 µM (inactive) | > 10 µM (inactive) | > 10 µM (inactive) | > 10 µM (inactive) |  | > 10 µM (inactive) | > 10 µM (inactive) |  | > 10 µM (inactive) | > 10 µM (inactive) |  |  | > 10 µM (inactive) | > 10 µM (inactive) |
